# From ChEMBL document CHEMBL1614629, “Extrapolation of human pharmacokinetic parameters from rat, dog, and monkey data: Molecular properties associated with extrapolative success or failure” (J Pharm Sci, 2005)
# Assays:
# [1] = Clearance in human after iv administration; format: ADME, organism-based; settings: in vivo
# [2] = Volume of distribution at steady state in rat after iv administration; format: ADME, organism-based; settings: in vivo
# [3] = Clearance in rat after iv administration; format: ADME, organism-based; settings: in vivo
# [4] = Volume of distribution at steady state in dog after iv administration; format: ADME, organism-based, Canis lupus familiaris; settings: in vivo, read-out: Vdss
# [5] = Clearance in monkey after iv administration; format: ADME, organism-based; settings: macaca, in vivo
# [6] = Clearance in dog after iv administration; format: ADME, organism-based, Canis lupus familiaris; settings: in vivo
# [7] = Volume of distribution at steady state in monkey after iv administration; format: ADME, organism-based; settings: macaca, in vivo, read-out: Vdss
# [8] = Volume of distribution at steady state in human after iv administration; format: ADME, organism-based; settings: in vivo, read-out: Vdss
Structure (SMILES),clearance [1] [mL/min/kg],Vdss [2] [L/kg],clearance [3] [mL/min/kg],Vd [4] [L/kg],clearance [5] [mL/min/kg],clearance [6] [mL/min/kg],Vd [7] [L/kg],Vd [8] [L/kg]
C[C@@H](O)[C@H]1C(=O)N2C(C(=O)[O-])=C(SC3Cn4cnc[n+]4C3)[C@H](C)[C@H]12 (some centres undefined) [BIAPENEM],2.7,0.24,16,0.28,5.3,6.2,0.23,0.25
CO/N=C(\C(=O)N[C@@H]1C(=O)N2C(C(=O)[O-])=C(C[N+]34CCC(C(N)=O)(CC3)CC4)CS[C@H]12)c1nsc(N)n1 [CEFCLIDIN],1.5,0.22,8.8,0.23,3.4,3.6,0.28,0.17
CO[C@@]1(NC(=O)CSCC#N)C(=O)N2C(C(=O)O)=C(CSc3nnnn3C)CS[C@@H]21 [CEFMETAZOLE],1.8,0.49,40,0.24,3.8,5.3,0.14,0.14
CO/N=C(\C(=O)N[C@@H]1C(=O)N2C(C(=O)O)=C(CSc3nc(C)c(CC(=O)O)s3)CS[C@H]12)c1csc(N)n1 [CEFODIZIME],0.73,0.18,1.1,0.26,1.2,4.1,0.15,0.15
CO[C@@]1(NC(=O)C2SC(=C(C(N)=O)C(=O)O)S2)C(=O)N2C(C(=O)O)=C(CSc3nnnn3C)CS[C@@H]21 (some centres undefined) [CEFOTETAN],0.5,0.25,13,0.25,1.7,4,0.17,0.13
CO/N=C(\C(=O)N[C@@H]1C(=O)N2C(C(=O)[O-])=C(C[n+]3ccn4ncccc43)CS[C@H]12)c1nsc(N)n1 [CEFOZOPRAN],1.5,0.2,9.4,0.21,1.9,3,0.2,0.27
Cc1cc(O)c(C(=O)N[C@@H](C(=O)N[C@@H]2C(=O)N3C(C(=O)O)=C(CSc4nnnn4C)CS[C@H]23)c2ccc(O)cc2)cn1 [CEFPIRAMIDE],0.28,0.26,9.5,0.45,0.52,5.1,0.1,0.11
CO/N=C(\C(=O)N[C@@H]1C(=O)N2C(C(=O)O)=CCS[C@H]12)c1csc(N)n1 [CEFTIZOXIME],1.8,0.18,19,0.1,5.9,3.3,0.12,0.23
CO/N=C(\C(=O)N[C@@H]1C(=O)N2C(C(=O)O)=C(CSc3nc(=O)c(=O)[nH]n3C)CS[C@H]12)c1csc(N)n1 [CEFTRIAXONE],0.24,0.18,4,0.24,0.45,4,0.11,0.16
CN(C)CCCC1(c2ccc(F)cc2)OCc2cc(C#N)ccc21 (centres undefined) [CITALOPRAM],5,21,82,10,39,14,10,14
O=C1CN=C(c2ccccc2Cl)c2cc([N+](=O)[O-])ccc2N1 [CLONAZEPAM],1.6,3,21,1.6,14,11,6.8,5.5
O=c1ccc2ccccc2o1 [COUMARIN],17,1.3,20,6.5,34,22,4.5,2.2
O=P1(N(CCCl)CCCl)NCCCO1 (centres undefined) [CYCLOPHOSPHAMIDE ANHYDROUS],2.6,0.8,12,0.7,20,20,1.3,0.7
O=C(O)Cc1ccccc1Nc1c(Cl)cccc1Cl [DICLOFENAC],4.2,0.75,9.4,0.23,8.7,1.6,0.17,0.17
O=c1[nH]cnc2c1ncn2[C@H]1CC[C@@H](CO)O1 [DIDANOSINE],14,0.99,66,0.95,12,23,0.92,0.81
CC(C)N(CCC(C(N)=O)(c1ccccc1)c1ccccn1)C(C)C (centres undefined) [DISOPYRAMIDE],2.4,6.2,34,2.3,19,29,2,0.78
COc1cccc2c1C(=O)c1c(O)c3c(c(O)c1C2=O)C[C@@](O)(C(=O)CO)C[C@@H]3O[C@H]1C[C@H](N)[C@H](O)[C@H](C)O1 [DOXORUBICIN],17,25,34,44,28,17,24,25
CC[C@H]1OC(=O)[C@H](C)[C@@H](O[C@H]2C[C@@](C)(OC)[C@@H](O)[C@H](C)O2)[C@H](C)[C@@H](O[C@@H]2O[C@H](C)C[C@H](N(C)C)[C@H]2O)[C@](C)(O)C[C@@H](C)C(=O)[C@H](C)[C@@H](O)[C@]1(C)O [ERYTHROMYCIN],7,9.3,73,2.7,14,21,0.93,0.89
C#C[C@]1(O)CC[C@H]2[C@@H]3CCc4cc(O)ccc4[C@H]3CC[C@@]21C [ETHINYL ESTRADIOL],5,73,64,17,17,25,6,18
CCC1(C)CC(=O)NC1=O (centres undefined) [ETHOSUXIMIDE],0.15,0.68,3.1,0.59,0.33,0.42,0.82,0.63
CN1CCN(c2c(F)cc3c(=O)c(C(=O)O)cn(CCF)c3c2F)CC1 [FLEROXACIN],2.4,1.3,5.7,1.3,4,1.6,1.2,1.5
NCC1(CC(=O)O)CCCCC1 [GABAPENTIN],1.8,1.2,9.5,0.16,2.6,2.3,0.68,0.82
NC(=O)c1cc[n+](COC[n+]2ccccc2/C=N/O)cc1 [HI-6],3.2,0.3,9.8,0.26,8.6,3.7,0.34,0.39
